Laboratory results published in patent publication US8841277B2, “Methods for treating non-small cell lung cancer using 5-azacytidine” (Celgene Corporation, priority 2009, dated 2014).
“Also recorded” adds a separate entry of the source.

Key:
H460 cells = assay: Apoptosis (AnnexinV-FITC/7-AAD), H460; assay type: cell-based; conditions: 0.3-10 μM
Source text: (§1) For cell cycle distribution, cells were stained with the NIM-DAPI reagent (Beckman Coulter, Inc.; Fullerton, Calif.). For measurement of early- and late-apoptotic cell populations, cells were stained with AnnexinV-FITC and 7-AAD reagents (Beckman Coulter, Inc.). Samples were processed according to manufacturer's instructions and analyzed on a Cell Lab Quanta MPL flow cytometer (Beckman Coulter, Inc.). […] Data were also collected for untreated cells as control.

[1] = tested on: LINE-1 elements in A549 cells; assay: LINE-1 Methylation Assay, A549; assay type: cell-based
Method: (§2) Genomic DNA was purified from cells using the DNeasy Blood and Tissue Kit (Qiagen; Valencia, Calif.), according to the manufacturer's instructions. DNA yield was quantitated with a NanoDrop 8000 spectrophotometer (Thermo Fisher Scientific, Inc.). DNAs (1 μg/sample) were submitted to EpigenDx (Worcester, Mass.) for bisulfate conversion and pyrosequencing of LINE-1 elements. Briefly, 1 μg of DNA was bisulfite-treated using the Zymo DNA Methylation Kit (Zymo Research; Orange, Calif.) and eluted in 10 μL volume. DNA eluate (1 μL) was used for PCR with biotinylated primers to the LINE-1 locus, converting the PCR product to single-stranded DNA templates. PCR products (each 10 μL) were sequenced by Pyrosequencing PSQ96 HS System (Biotage AB), following the manufacturer's instructions (Biotage; Kungsgatan, Sweden). The methylation status of each locus was analyzed individually as a T/C SNP using QCpG software (Biotage). Percent LINE-1 methylation represents the average percent methylation of four CpG sites in duplicate samples.
(§3) At the highest drug concentration tested (3 μM), LINE-1 methylation was less affected, possibly due to reduced drug incorporation as a result of inhibited cell proliferation.

A549 cells [2] = assay: Apoptosis (AnnexinV-FITC/7-AAD), A549; assay type: cell-based; conditions: 0.3-10 μM
Source text: as §1

[3] = tested on: LINE-1 elements in H1299 cells; assay: LINE-1 Methylation Assay, H1299; assay type: cell-based
Method: as §2, §3

DNMT1 = DNMT1 protein depletion, H460; assay type: cell-based
Method: (§4) For western analyses of protein levels, cells were washed with PBS and lysed with RIPA buffer (Cell Signaling Technology, Inc.; Danvers, Mass.) containing 350 mM NaCl and 0.1% SDS. Cell lysates were sonicated with two 5-second bursts under low amplitude (20%) using the Digital Sonic Dismembrator (Thermo Fisher Scientific, Inc.; Waltham, Mass.). Proteins were separated on 4-12% Bis-Tris NuPAGE gels (Life Technologies Corporation) and transferred to nitrocellulose membranes. DNMT1, phos-Histone-H2AX(Ser139), total Histone-H2AX, cleaved-PARP, p21, p53, and alpha-tubulin were detected using the Li-Cor Odyssey imaging system (Li-Cor Biotechnology; Lincoln, Nebr.), following incubation with the appropriate primary and secondary antibodies. The phos-Histone-H2AX(Ser139), cleaved-PARP, and p21 antibodies were from Cell Signaling Technology, Inc. The p53 and total Histone-H2AX (C-20) antibodies were from Santa Cruz Biotechnology, Inc. (Santa Cruz, Calif.). The alpha-tubulin and DNMT1 antibodies were purchased from EMD Chemicals, Inc. (Gibbstown, N.J.) and Abcam, Inc. (Cambridge, Mass.), respectively. The goat anti-Rabbit IRDye 680, goat anti-Mouse IRDye 800CW, and donkey anti-Goat IRDye 800CW secondary antibodies were from Li-Cor Biotechnology.
Reduced DNMT1 levels were detected in these cell lines as early as 4 hours after drug treatment (FIG. 17).

A549 cells [4] = assay: Gene expression microarray analysis, A549; assay type: cell-based, human; conditions: 48 hours; for Downregulated Genes: Genes in Common (number) / Upregulated Genes: Genes in Common (number): regulated by both AZA and DAC;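 as to Downregulated Genes: AZA-Specific / DAC-Specific Genes (number): drug dose range 0.3 to 3 µM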;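 as to Downregulated Genes: Genes in Common (number): drug dose range 0.3 to 3 µM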;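 as to Upregulated Genes: AZA-Specific / DAC-Specific Genes (number): drug dose range 0.3 to 3 µM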;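 as to Upregulated Genes: Genes in Common (number): drug dose range 0.3 to 3 µM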
Method: (§5) Cells were lysed using the TRIzol reagent (Life Technologies Corporation) and total RNA was isolated using miRNeasy (Qiagen). Double-stranded cDNA and biotin-labeled cRNA were synthesized using 100 ng of total RNA using Ambion's MessageAmp Premier RNA Amplification Kit (ABI; Foster City, Calif.). Biotin-labeled cRNA, at 10 μg, was fragmented and hybridized to each human U133A 2.0 genechip (Affymetrix; Santa Clara, Calif.). The GC-RMA algorithm was used for normalization and all analyses were done using GeneSpring 7.3 (Agilent; Santa Clara, Calif.). Averaged signals from biological duplicate samples were used to determine fold change (Treated vs. Untreated), with an absolute fold change of ≧1.7 defining regulated genes. NextBio was used to identify regulated Gene Ontology biogroups from lists of regulated genes. The top 15 biogroups are those with the lowest p-values calculated within NextBio.
(§6) The number of genes modulated in common between the two drugs was low.
(§7) Functional groupings of the modulated genes were determined using Gene Ontology classifications in Nextbio (http://www.nextbio.com/).

NSCLC cell types = assay: Apoptosis (AnnexinV-FITC/7-AAD), summary; assay type: cell-based; conditions: summary of studies
Source text: as §1

H1299 cells [5] = assay: Western analysis of DNA damage and apoptosis markers, H1299; assay type: cell-based
Method: (§8) These studies also examined apoptosis using an assay for PARP cleavage. Cells studied included H460, A549, and H1299 cells.
as §4

H1299 cells [6] = assay: Gene expression microarray analysis, H1299; assay type: cell-based, human; conditions: 48 hours; for Downregulated Genes: AZA-Specific / DAC-Specific Genes (number) / Upregulated Genes: AZA-Specific / DAC-Specific Genes (number) / Downregulated Genes: Genes in Common (number) / Upregulated Genes: Genes in Common (number): H1299; for Downregulated Genes: Genes in Common (number) / Upregulated Genes: Genes in Common (number): regulated by both AZA and DAC;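 as to Downregulated Genes: AZA-Specific / DAC-Specific Genes (number): drug dose range 0.3 to 3 µM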;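 as to Downregulated Genes: Genes in Common (number): drug dose range 0.3 to 3 µM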;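 as to Upregulated Genes: AZA-Specific / DAC-Specific Genes (number): drug dose range 0.3 to 3 µM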;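 as to Upregulated Genes: Genes in Common (number): drug dose range 0.3 to 3 µM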
Method: as §5, §6, §7

A549 cells [7] = assay: Western analysis of DNA damage and apoptosis markers, A549; assay type: cell-based
Method: as §8, §4

[8] = 0.3-10 μM, up to 3 days of treatment
[9] = 0.3-10 μM, 24 h to 72 h (3 days)

## Nc1ncn([C@H]2C[C@H](O)[C@@H](CO)O2)c(=O)n1 [DAC, 5-aza-2′-deoxycytidine]
H460 cells; 30-hour treatment
  Early- and late-apoptotic cell populations (AnnexinV/7-AAD): very slight increase in these cell populations; also recorded: very slight increase in this cell population
H460 cells; 48-hour treatment
  Early- and late-apoptotic cell populations (AnnexinV/7-AAD): some increase in this cell population
[1]; 48 or 72 hours
  Concentration of peak hypomethylation (LINE-1): 0.1 μM
  Potency in decreasing LINE-1 methylation relative to AZA: 3- to 10 fold
[1]; 48 hours or 72 hours
  DNA hypomethylation (LINE-1 methylation): induced DNA hypomethylation; also recorded: caused a decrease in LINE-1 methylation
A549 cells [2]; 48-hour treatment
  Early- and late-apoptotic cell populations (AnnexinV/7-AAD): very slight increase in these cell populations
A549 cells [2]; 72-hour treatment
  Early- and late-apoptotic cell populations (AnnexinV/7-AAD): very slight increase in these cell populations; also recorded: slight increase in early-apoptotic (AnnexinV^+ 7-AAD^−) cells only
[3]; 48 or 72 hours
  Concentration of peak hypomethylation (LINE-1): 0.1 μM
  Potency in decreasing LINE-1 methylation relative to AZA: 3- to 10 fold
[3]; 48 hours or 72 hours
  DNA hypomethylation (LINE-1 methylation): induced DNA hypomethylation; also recorded: caused a decrease in LINE-1 methylation
DNMT1; 0.3-10 μM, 24 h and 48 h (Example 5)
  DNMT1 depletion: able to cause DNMT1 depletion
DNMT1; 20 hours
  Relative potency in reducing DNMT1 levels: equipotent
DNMT1; dose range, 20 hours
  DNMT1 protein levels: significantly reduced
A549 cells [4]; A549 (stated for A549 and H1299 together), 0.3 μM
  Fold more genes modulated than AZA: 4- to 20 fold
A549 cells [4]; A549, 0.3 μM
  Downregulated Genes: AZA-Specific / DAC-Specific Genes (number): 55
  Downregulated Genes: Genes in Common (number): 11
  Upregulated Genes: Genes in Common (number): 17
A549 cells [4]; A549, 0.3 μM, fold change ≧1.7
  Upregulated Genes: AZA-Specific / DAC-Specific Genes (number): 139
A549 cells [4]; A549, 1.0 μM
  Downregulated Genes: AZA-Specific / DAC-Specific Genes (number): 111
  Upregulated Genes: AZA-Specific / DAC-Specific Genes (number): 261
  Downregulated Genes: Genes in Common (number): 30
  Upregulated Genes: Genes in Common (number): 45
A549 cells [4]; A549, 3.0 μM
  Downregulated Genes: AZA-Specific / DAC-Specific Genes (number): 239
  Upregulated Genes: AZA-Specific / DAC-Specific Genes (number): 413
  Downregulated Genes: Genes in Common (number): 55
  Upregulated Genes: Genes in Common (number): 66
A549 cells [4]; A549
  Regulation of genes in the Response to DNA Damage Stimulus/DNA Repair biogroup: general downregulation
NSCLC cell types
  Early- and late-apoptotic cell populations (AnnexinV/7-AAD): very slight increase in these cell populations
H1299 cells [5]; [8]
  Induction of Histone H2AX phosphorylation: did not have any effect
  Induction of PARP cleavage: did not have any effect
H1299 cells [5]; 6 days of treatment
  Induction of Histone H2AX phosphorylation: induced strong
  Induction of PARP cleavage: failed to induce significant
H1299 cells [6]; H1299 (stated for A549 and H1299 together), 0.3 μM
  Fold more genes modulated than AZA: 4- to 20 fold
H1299 cells [6]; 0.3 μM
  Downregulated Genes: AZA-Specific / DAC-Specific Genes (number): 121
  Upregulated Genes: AZA-Specific / DAC-Specific Genes (number): 214
  Downregulated Genes: Genes in Common (number): 45
  Upregulated Genes: Genes in Common (number): 55
H1299 cells [6]; 1.0 μM
  Downregulated Genes: AZA-Specific / DAC-Specific Genes (number): 170
  Upregulated Genes: AZA-Specific / DAC-Specific Genes (number): 238
  Downregulated Genes: Genes in Common (number): 107
  Upregulated Genes: Genes in Common (number): 135
H1299 cells [6]; 3.0 μM
  Downregulated Genes: AZA-Specific / DAC-Specific Genes (number): 257
  Upregulated Genes: AZA-Specific / DAC-Specific Genes (number): 303
  Downregulated Genes: Genes in Common (number): 153
  Upregulated Genes: Genes in Common (number): 173
A549 cells [7]; [9]
  Induction of Histone H2AX phosphorylation (marker of DNA damage): did not have any effect and not
  Induction of PARP cleavage (marker of apoptosis): did not have any effect and not
A549 cells [7]; 24 h and 48 h
  p21 expression: induce
  p53 expression: induce
A549 cells [7]; 6 days of treatment
  Induction of Histone H2AX phosphorylation: lack of induction
  Induction of PARP cleavage: lack of induction
